Results on 6 compounds are retold here after patent US12304890B2, “R-type pyridyloxycarboxylic acid, salt and ester derivative thereof, and preparation method therefor, and herbicidal composition and application thereof” (Qingdao Kingagroot Chemical Compound Co., Ltd., priority 2018, dated 2025).

Common to all, as to type: in vivo
Data set [1] concerns Monocotyledonous and dicotyledonous weed seeds and main crop seeds. In words: Post-emergence test experiment, other weeds and crops (Table 4, 1000 g a.i./ha). To be noted: 3 weeks in greenhouse, fresh weight inhibition. A digest of the protocol:
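Weed and crop seeds (wheat, corn, rice, soybean, cotton, oilseed, millet, sorghum) sown in soil pots in a greenhouse and sprayed at 2-3 leaf stage, 2 weeks after sowing. Compound in acetone/tween-80 with methyl oleate concentrate (1.5 L/ha) as synergist. Effect recorded as fresh-weight growth inhibition rate.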

A further data set has as its system Digitaria sanguinalis. In words: Post-emergence test experiment, Digitaria sanguinalis. To be noted: for Digitaria sanguinalis, activity level (growth inhibition rate): 200 g a.i./ha, 3 weeks, weed resistant to cyhalofop-butyl; for Activity level (growth inhibition rate), Digitaria sanguinalis: 1000 g a.i./ha, 3 weeks in greenhouse, fresh weight inhibition. In a few lines: (§1)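 Greenhouse-grown plants sprayed at the 2-3 leaf stage, 2 weeks after sowing, with compound in acetone/tween-80 diluted in water plus 1.5 L/ha methyl oleate emulsifiable concentrate as synergist. Effect scored 3 weeks later as fresh weight inhibition rate.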

A further data set relates to rice. Nature of the data set: Post-emergence test experiment, rice (crop selectivity). The following applies: 200 g a.i./ha, 3 weeks. The method, then: (§2) The above described growth inhibition rate is fresh weight inhibition rate.
(§3) Post-emergence test experiment: Monocotyledonous and dicotyledonous weed seeds and main crop seeds (i. e. wheat, corn, rice, soybean, cotton, oilseed, millet and sorghum.) were put into a plastic pot loaded with soil. Then covered with 0.5-2 cm soil, the seeds were allowed to grow in good greenhouse environment. The test plants were treated at 2-3 leaf stage 2 weeks after sowing. The test compounds of the invention were dissolved with acetone respectively, then added with tween-80, and using 1.5 liters per hectare of an emulsible concentrate of methyl oleate as a synergist, and diluted by certain amount of water to certain concentration. The solution was sprayed to the plants with a sprayer. Then the plants were cultured for 3 weeks in the greenhouse, and the experiment result of weed controlling effect was listed in tables 4-5.

The subject of a further data set is Echinochloa crusgalli. In words: Post-emergence test experiment, Echinochloa crusgalli. To be noted: for Echinochloa crusgalli, activity level (growth inhibition rate): 200 g a.i./ha, 3 weeks, weed resistant to ALS inhibitor and ACCe herbicides; for Activity level (growth inhibition rate), Echinochloa crusgalli: 1000 g a.i./ha, 3 weeks in greenhouse, fresh weight inhibition. A digest of the protocol: as §1

For data set [2], the system named is Semen Euphorbiae Lathyridis. In words: Post-emergence test experiment, Semen Euphorbiae Lathyridis. To be noted: 200 g a.i./ha, 3 weeks, weed resistant to cyhalofop-butyl. The method, then: as §2, §3

In the case of `CCCCCSC(=O)[C@@H](C)Oc1nc(F)c(Cl)c(N)c1Cl` [Compound 2-86], in data set [1], the “Activity level (growth inhibition rate), Abutilon theophrasti Medic.” value was 5 (Level 5: the growth inhibition rate is greater than 85%); the “Activity level (growth inhibition rate), Galium aparine” value is given as 5 (Level 5: the growth inhibition rate is greater than 85%); the “Activity level (growth inhibition rate), Monochoria Vaginalis” value is reported as 5 (Level 5: the growth inhibition rate is greater than 85%). In addition, in the data set with Digitaria sanguinalis, the “Digitaria sanguinalis, activity level (growth inhibition rate)” value is recorded as 5 (Level 5: the growth inhibition rate is greater than 85%) and the “Activity level (growth inhibition rate), Digitaria sanguinalis” value was 5 (Level 5: the growth inhibition rate is greater than 85%). Also, the “rice, activity level (growth inhibition rate)” value (shortened to “rice … (growth inhibition rate)”) in the data set on rice is 0 (Level 0: the growth inhibition rate is less than 5%). In the data set on Echinochloa crusgalli, the “Echinochloa crusgalli, activity level (growth inhibition rate)” value was 5 (Level 5: the growth inhibition rate is greater than 85%) and the “Activity level (growth inhibition rate), Echinochloa crusgalli” value is 5 (Level 5: the growth inhibition rate is greater than 85%). Also, the “Semen Euphorbiae Lathyridis, activity level (growth inhibition rate)” value in data set [2] is 5 (Level 5: the growth inhibition rate is greater than 85%).
With `CCCC(C)COC(=O)[C@@H](C)Oc1nc(F)c(Cl)c(N)c1Cl` (stereo partly drawn) [Compound 2-103], in data set [1], the “Activity level (growth inhibition rate), Abutilon theophrasti Medic.” value was 5 (Level 5: the growth inhibition rate is greater than 85%); the “Activity level (growth inhibition rate), Galium aparine” value is recorded as 5 (Level 5: the growth inhibition rate is greater than 85%); the “Activity level (growth inhibition rate), Monochoria Vaginalis” value was 5 (Level 5: the growth inhibition rate is greater than 85%). Further, in the data set with Digitaria sanguinalis, the “Digitaria sanguinalis, activity level (growth inhibition rate)” value is reported as 5 (Level 5: the growth inhibition rate is greater than 85%) and the “Activity level (growth inhibition rate), Digitaria sanguinalis” value is given as 5 (Level 5: the growth inhibition rate is greater than 85%). Further, the “rice … (growth inhibition rate)” value with rice was 0 (Level 0: the growth inhibition rate is less than 5%). In the data set with Echinochloa crusgalli, the “Echinochloa crusgalli, activity level (growth inhibition rate)” value is reported as 5 (Level 5: the growth inhibition rate is greater than 85%) and the “Activity level (growth inhibition rate), Echinochloa crusgalli” value is reported as 5 (Level 5: the growth inhibition rate is greater than 85%). Moreover, in data set [2], the “Semen Euphorbiae Lathyridis, activity level (growth inhibition rate)” value is 5 (Level 5: the growth inhibition rate is greater than 85%).
As to `CCCCC(C)OC(=O)[C@@H](C)Oc1nc(F)c(Cl)c(N)c1Cl` (stereo partly drawn) [Compound 2-113], in data set [1], the “Activity level (growth inhibition rate), Abutilon theophrasti Medic.” value was 5 (Level 5: the growth inhibition rate is greater than 85%); the “Activity level (growth inhibition rate), Galium aparine” value was 5 (Level 5: the growth inhibition rate is greater than 85%); the “Activity level (growth inhibition rate), Monochoria Vaginalis” value is reported as 5 (Level 5: the growth inhibition rate is greater than 85%). For the same compound, in the data set on Digitaria sanguinalis, the “Digitaria sanguinalis, activity level (growth inhibition rate)” value is reported as 5 (Level 5: the growth inhibition rate is greater than 85%) and the “Activity level (growth inhibition rate), Digitaria sanguinalis” value is listed as 5 (Level 5: the growth inhibition rate is greater than 85%). The “rice … (growth inhibition rate)” value in the data set with rice is recorded as 0 (Level 0: the growth inhibition rate is less than 5%). In the data set with Echinochloa crusgalli, the “Echinochloa crusgalli, activity level (growth inhibition rate)” value was 5 (Level 5: the growth inhibition rate is greater than 85%) and the “Activity level (growth inhibition rate), Echinochloa crusgalli” value is reported as 5 (Level 5: the growth inhibition rate is greater than 85%). Besides, the “Semen Euphorbiae Lathyridis, activity level (growth inhibition rate)” value in data set [2] was 5 (Level 5: the growth inhibition rate is greater than 85%).
With `CCCCCCCOC(=O)[C@@H](C)Oc1nc(F)c(Cl)c(N)c1Cl` [Compound 2-121], in data set [1], the “Activity level (growth inhibition rate), Abutilon theophrasti Medic.” value was 5 (Level 5: the growth inhibition rate is greater than 85%); the “Activity level (growth inhibition rate), Galium aparine” value was 5 (Level 5: the growth inhibition rate is greater than 85%); the “Activity level (growth inhibition rate), Monochoria Vaginalis” value is on record as 5 (Level 5: the growth inhibition rate is greater than 85%). Moreover, in the data set with Digitaria sanguinalis, the “Digitaria sanguinalis, activity level (growth inhibition rate)” value is 5 (Level 5: the growth inhibition rate is greater than 85%) and the “Activity level (growth inhibition rate), Digitaria sanguinalis” value is 5 (Level 5: the growth inhibition rate is greater than 85%). Also, the “rice … (growth inhibition rate)” value in the data set on rice is 0 (Level 0: the growth inhibition rate is less than 5%). Moreover, in the data set on Echinochloa crusgalli, the “Echinochloa crusgalli, activity level (growth inhibition rate)” value is listed as 5 (Level 5: the growth inhibition rate is greater than 85%) and the “Activity level (growth inhibition rate), Echinochloa crusgalli” value is on record as 5 (Level 5: the growth inhibition rate is greater than 85%). For the same compound, the “Semen Euphorbiae Lathyridis, activity level (growth inhibition rate)” value in data set [2] is given as 5 (Level 5: the growth inhibition rate is greater than 85%).
On to `CCCCCCCCCCOC(=O)[C@@H](C)Oc1nc(F)c(Cl)c(N)c1Cl` [Compound 2-195], for which, in data set [1], the “Activity level (growth inhibition rate), Abutilon theophrasti Medic.” value was 5 (Level 5: the growth inhibition rate is greater than 85%); the “Activity level (growth inhibition rate), Galium aparine” value is given as 5 (Level 5: the growth inhibition rate is greater than 85%); the “Activity level (growth inhibition rate), Monochoria Vaginalis” value was 5 (Level 5: the growth inhibition rate is greater than 85%). Further, in the data set with Digitaria sanguinalis, the “Digitaria sanguinalis, activity level (growth inhibition rate)” value is given as 5 (Level 5: the growth inhibition rate is greater than 85%) and the “Activity level (growth inhibition rate), Digitaria sanguinalis” value was 5 (Level 5: the growth inhibition rate is greater than 85%). Besides, the “rice … (growth inhibition rate)” value in the data set on rice was 0 (Level 0: the growth inhibition rate is less than 5%). In the data set with Echinochloa crusgalli, the “Echinochloa crusgalli, activity level (growth inhibition rate)” value was 4 (Level 4: the growth inhibition rate is equal to or greater than 60% and less than 85%); the “Activity level (growth inhibition rate), Echinochloa crusgalli” value is on record as 5 (Level 5: the growth inhibition rate is greater than 85%). For the same compound, in data set [2], the “Semen Euphorbiae Lathyridis, activity level (growth inhibition rate)” value is listed as 5 (Level 5: the growth inhibition rate is greater than 85%).
Consider `CCCCCCCCCCCOC(=O)[C@@H](C)Oc1nc(F)c(Cl)c(N)c1Cl` [Compound 2-215], for which, in data set [1], the “Activity level (growth inhibition rate), Abutilon theophrasti Medic.” value is recorded as 5 (Level 5: the growth inhibition rate is greater than 85%); the “Activity level (growth inhibition rate), Galium aparine” value was 5 (Level 5: the growth inhibition rate is greater than 85%); the “Activity level (growth inhibition rate), Monochoria Vaginalis” value is 5 (Level 5: the growth inhibition rate is greater than 85%). Moreover, in the data set on Digitaria sanguinalis, the “Digitaria sanguinalis, activity level (growth inhibition rate)” value is given as 5 (Level 5: the growth inhibition rate is greater than 85%) and the “Activity level (growth inhibition rate), Digitaria sanguinalis” value is on record as 5 (Level 5: the growth inhibition rate is greater than 85%). Further, the “rice … (growth inhibition rate)” value with rice is on record as 0 (Level 0: the growth inhibition rate is less than 5%). Further, in the data set on Echinochloa crusgalli, the “Echinochloa crusgalli, activity level (growth inhibition rate)” value is 4 (Level 4: the growth inhibition rate is equal to or greater than 60% and less than 85%); the “Activity level (growth inhibition rate), Echinochloa crusgalli” value is given as 5 (Level 5: the growth inhibition rate is greater than 85%). For the same compound, in data set [2], the “Semen Euphorbiae Lathyridis, activity level (growth inhibition rate)” value is 5 (Level 5: the growth inhibition rate is greater than 85%).
